Each structure is given as a SMILES string.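 Grown in 96-well plates, cells were treated for 48 hours with each compound at five concentrations. Insufficient inhibition: endpoint recorded as highest concentration tested. TGI marks complete inhibition of growth.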 A value given as a limit tells only on which side of the number the result lay.

The subject of the first test is UACC-257 melanoma. The experiment in a line: growth of human tumour cells (NCI), 48 h.
Compound `CCOC(=O)CNC(=O)C(CSCc1ccc(Br)cc1)NC(=O)CCC(N)C(=O)OCC` (centres undefined) came in with a TGI above 50 µM.

In turn, `COC(=O)C1(C(=O)OC)CC2=C(S(=O)(=O)c3ccccc3)C[C@H](S(=O)(=O)c3ccccc3)[C@H]2C1` came in with a TGI above 100 µM.

The test system of another test is SK-MEL-28 melanoma. The experiment in a line: growth of human tumour cells (NCI), 48 h.
On to `COc1cc2c(cc1OC)C1=Cc3cc(OC)c(OC)cc3C(C)N1C=C2` (centres undefined), for which the TGI is above 100 µM.

In turn, `Nc1nc2cc3nc(N)c(N)nc3cc2nc1N` displayed a TGI above 100 µM.

`CCOC(=O)CNC(=O)C(CSCc1ccc(Br)cc1)NC(=O)CCC(N)C(=O)OCC` (centres undefined) showed a TGI above 50 µM.

`COC(=O)C1(C(=O)OC)CC2=C(S(=O)(=O)c3ccccc3)C[C@H](S(=O)(=O)c3ccccc3)[C@H]2C1` came in with a TGI above 100 µM.

In another test the test system is SF-539 CNS. Description: growth of human tumour cells (NCI), 48 h.
The compound `COc1cc2c(cc1OC)C1=Cc3cc(OC)c(OC)cc3C(C)N1C=C2` (centres undefined) gave a TGI above 100 µM.

Regarding `Nc1nc2cc3nc(N)c(N)nc3cc2nc1N`, the TGI is above 100 µM.

Regarding `CCOC(=O)CNC(=O)C(CSCc1ccc(Br)cc1)NC(=O)CCC(N)C(=O)OCC` (centres undefined), the TGI was above 50 µM.

For the next test, the system named is UO-31 renal. The experiment in a line: growth of human tumour cells (NCI), 48 h.
In turn, `COc1cc2c(cc1OC)C1=Cc3cc(OC)c(OC)cc3C(C)N1C=C2` (centres undefined) displayed a TGI above 100 µM.

In turn, `Nc1nc2cc3nc(N)c(N)nc3cc2nc1N` yielded a TGI above 100 µM.

`CCOC(=O)CNC(=O)C(CSCc1ccc(Br)cc1)NC(=O)CCC(N)C(=O)OCC` (centres undefined) had a TGI above 50 µM.

`COC(=O)C1(C(=O)OC)CC2=C(S(=O)(=O)c3ccccc3)C[C@H](S(=O)(=O)c3ccccc3)[C@H]2C1` registered a TGI above 100 µM.

For a further test, the system named is IGROV1 ovarian. The experiment in a line: growth of human tumour cells (NCI), 48 h.
Consider `COc1cc2c(cc1OC)C1=Cc3cc(OC)c(OC)cc3C(C)N1C=C2` (centres undefined), for which the TGI was above 100 µM.

In turn, `Nc1nc2cc3nc(N)c(N)nc3cc2nc1N` came in with a TGI above 100 µM.

Take `CCOC(=O)CNC(=O)C(CSCc1ccc(Br)cc1)NC(=O)CCC(N)C(=O)OCC` (centres undefined): the TGI was above 50 µM.

The compound `COC(=O)C1(C(=O)OC)CC2=C(S(=O)(=O)c3ccccc3)C[C@H](S(=O)(=O)c3ccccc3)[C@H]2C1` showed a TGI of 49.9 µM.

The next test concerns HOP-62 NSCLC. The experiment in a line: growth of human tumour cells (NCI), 48 h.
The compound `COc1cc2c(cc1OC)C1=Cc3cc(OC)c(OC)cc3C(C)N1C=C2` (centres undefined) had a TGI above 100 µM.

`CCOC(=O)CNC(=O)C(CSCc1ccc(Br)cc1)NC(=O)CCC(N)C(=O)OCC` (centres undefined) came in with a TGI above 50 µM.

`COC(=O)C1(C(=O)OC)CC2=C(S(=O)(=O)c3ccccc3)C[C@H](S(=O)(=O)c3ccccc3)[C@H]2C1` returned a TGI above 100 µM.

The subject of the next test is ACHN renal. The experiment in a line: growth of human tumour cells (NCI), 48 h.
The compound `COc1cc2c(cc1OC)C1=Cc3cc(OC)c(OC)cc3C(C)N1C=C2` (centres undefined) gave a TGI above 100 µM.

In turn, `Nc1nc2cc3nc(N)c(N)nc3cc2nc1N` gave a TGI above 100 µM.

In the case of `CCOC(=O)CNC(=O)C(CSCc1ccc(Br)cc1)NC(=O)CCC(N)C(=O)OCC` (centres undefined), the TGI is above 50 µM.

As to `COC(=O)C1(C(=O)OC)CC2=C(S(=O)(=O)c3ccccc3)C[C@H](S(=O)(=O)c3ccccc3)[C@H]2C1`, the TGI is above 100 µM.

The subject of a further test is MCF7 breast. The experiment in a line: growth of human tumour cells (NCI), 48 h.
`COc1cc2c(cc1OC)C1=Cc3cc(OC)c(OC)cc3C(C)N1C=C2` (centres undefined) yielded a TGI above 100 µM.

For `Nc1nc2cc3nc(N)c(N)nc3cc2nc1N`, the TGI is above 100 µM.

The compound `CCOC(=O)CNC(=O)C(CSCc1ccc(Br)cc1)NC(=O)CCC(N)C(=O)OCC` (centres undefined) showed a TGI above 50 µM.

Another test has as its system MDA-MB-435. The experiment in a line: growth of human tumour cells (NCI), 48 h.
As to `COc1cc2c(cc1OC)C1=Cc3cc(OC)c(OC)cc3C(C)N1C=C2` (centres undefined), the TGI was above 100 µM.

`Nc1nc2cc3nc(N)c(N)nc3cc2nc1N` yielded a TGI above 100 µM.

Regarding `CCOC(=O)CNC(=O)C(CSCc1ccc(Br)cc1)NC(=O)CCC(N)C(=O)OCC` (centres undefined), the TGI is above 50 µM.

In turn, `COC(=O)C1(C(=O)OC)CC2=C(S(=O)(=O)c3ccccc3)C[C@H](S(=O)(=O)c3ccccc3)[C@H]2C1` registered a TGI above 100 µM.

The subject of another test is HT29 colon. Description: growth of human tumour cells (NCI), 48 h.
On to `COc1cc2c(cc1OC)C1=Cc3cc(OC)c(OC)cc3C(C)N1C=C2` (centres undefined), for which the TGI was above 100 µM.

`Nc1nc2cc3nc(N)c(N)nc3cc2nc1N`: the TGI was above 100 µM.

Compound `CCOC(=O)CNC(=O)C(CSCc1ccc(Br)cc1)NC(=O)CCC(N)C(=O)OCC` (centres undefined) had a TGI above 50 µM.

Compound `COC(=O)C1(C(=O)OC)CC2=C(S(=O)(=O)c3ccccc3)C[C@H](S(=O)(=O)c3ccccc3)[C@H]2C1` came in with a TGI above 100 µM.

For the next test, the system named is BT-549 breast. Description: growth of human tumour cells (NCI), 48 h.
The compound `COc1cc2c(cc1OC)C1=Cc3cc(OC)c(OC)cc3C(C)N1C=C2` (centres undefined) yielded a TGI above 100 µM.

The compound `Nc1nc2cc3nc(N)c(N)nc3cc2nc1N` registered a TGI above 100 µM.

Consider `CCOC(=O)CNC(=O)C(CSCc1ccc(Br)cc1)NC(=O)CCC(N)C(=O)OCC` (centres undefined), for which the TGI was above 50 µM.

Take `COC(=O)C1(C(=O)OC)CC2=C(S(=O)(=O)c3ccccc3)C[C@H](S(=O)(=O)c3ccccc3)[C@H]2C1`: the TGI is above 100 µM.

Another test has as its system TK-10 renal. The experiment in a line: growth of human tumour cells (NCI), 48 h.
`COc1cc2c(cc1OC)C1=Cc3cc(OC)c(OC)cc3C(C)N1C=C2` (centres undefined) displayed a TGI above 100 µM.

Compound `Nc1nc2cc3nc(N)c(N)nc3cc2nc1N` returned a TGI above 100 µM.

`COC(=O)C1(C(=O)OC)CC2=C(S(=O)(=O)c3ccccc3)C[C@H](S(=O)(=O)c3ccccc3)[C@H]2C1` gave a TGI above 100 µM.

The test system of another test is RPMI-8226 leukemia. Description: growth of human tumour cells (NCI), 48 h.
In the case of `COc1cc2c(cc1OC)C1=Cc3cc(OC)c(OC)cc3C(C)N1C=C2` (centres undefined), the TGI is above 100 µM.

The compound `Nc1nc2cc3nc(N)c(N)nc3cc2nc1N` had a TGI above 100 µM.

Take `CCOC(=O)CNC(=O)C(CSCc1ccc(Br)cc1)NC(=O)CCC(N)C(=O)OCC` (centres undefined): the TGI is above 50 µM.

On to `COC(=O)C1(C(=O)OC)CC2=C(S(=O)(=O)c3ccccc3)C[C@H](S(=O)(=O)c3ccccc3)[C@H]2C1`, for which the TGI is above 100 µM.

A further test relates to SW-620 colon. Description: growth of human tumour cells (NCI), 48 h.
For `COc1cc2c(cc1OC)C1=Cc3cc(OC)c(OC)cc3C(C)N1C=C2` (centres undefined), the TGI was above 100 µM.

In turn, `Nc1nc2cc3nc(N)c(N)nc3cc2nc1N` returned a TGI above 100 µM.

Take `CCOC(=O)CNC(=O)C(CSCc1ccc(Br)cc1)NC(=O)CCC(N)C(=O)OCC` (centres undefined): the TGI was above 50 µM.

Regarding `COC(=O)C1(C(=O)OC)CC2=C(S(=O)(=O)c3ccccc3)C[C@H](S(=O)(=O)c3ccccc3)[C@H]2C1`, the TGI is above 100 µM.

For the next test, the system named is HCT-15 colon. Description: growth of human tumour cells (NCI), 48 h.
`COc1cc2c(cc1OC)C1=Cc3cc(OC)c(OC)cc3C(C)N1C=C2` (centres undefined) yielded a TGI above 100 µM.

Take `Nc1nc2cc3nc(N)c(N)nc3cc2nc1N`: the TGI was above 100 µM.

Compound `CCOC(=O)CNC(=O)C(CSCc1ccc(Br)cc1)NC(=O)CCC(N)C(=O)OCC` (centres undefined) registered a TGI above 50 µM.

For `COC(=O)C1(C(=O)OC)CC2=C(S(=O)(=O)c3ccccc3)C[C@H](S(=O)(=O)c3ccccc3)[C@H]2C1`, the TGI is above 100 µM.

The values above are taken from PubChem BioAssay (NCI).
